Here are results for 16 compounds from publication PMC5849682, “Novel 2-pheynlbenzofuran derivatives as selective butyrylcholinesterase inhibitors for Alzheimer’s disease” (Scientific Reports, 2018).

Data set [1] is described as follows: ABTS radical-scavenging antioxidant assay. Conditions: mean ± SD of three independent experiments. Here is the method: Total free radical-scavenging capacity of the compounds was determined by ABTS^.+ [2,2′-azinobis-(3-ethylbenzothiazoline-6-sulfonic acid)] method using Trolox as antioxidant standard, as previously reported.
In data set [2] the target is T1, eqBChE (Equus caballus, UniProt P81908).
T1 construct: butylcholinesterase was from equine serum (eqBChE); purchased Sigma-Aldrich; host or cells: equine serum
T1 sequence (P81908 whole entry): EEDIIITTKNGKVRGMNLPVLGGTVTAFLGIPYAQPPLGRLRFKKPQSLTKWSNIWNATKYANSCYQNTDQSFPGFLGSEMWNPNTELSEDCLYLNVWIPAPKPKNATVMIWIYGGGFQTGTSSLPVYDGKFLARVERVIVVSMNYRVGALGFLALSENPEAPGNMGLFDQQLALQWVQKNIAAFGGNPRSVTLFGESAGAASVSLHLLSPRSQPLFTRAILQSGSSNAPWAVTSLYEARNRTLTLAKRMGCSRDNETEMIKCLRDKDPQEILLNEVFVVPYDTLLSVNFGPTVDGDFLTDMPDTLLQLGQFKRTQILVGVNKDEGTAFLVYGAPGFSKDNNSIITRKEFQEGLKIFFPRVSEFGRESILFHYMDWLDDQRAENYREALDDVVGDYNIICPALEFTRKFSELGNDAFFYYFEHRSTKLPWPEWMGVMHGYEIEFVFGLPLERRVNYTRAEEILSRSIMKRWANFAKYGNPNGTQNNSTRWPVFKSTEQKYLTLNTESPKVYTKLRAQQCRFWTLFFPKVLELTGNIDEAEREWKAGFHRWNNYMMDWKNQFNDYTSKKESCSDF
Put plainly: biochemical. It is filed as biochemical. Conditions: for Selectivity to eqBChE: IC50 for AChE/IC50 for BChE; for IC50: mean ± SD, n = 3. Here is the method:
(§1) The enzymes and reagents for biochemical assays were obtained from Sigma-Aldrich. Kinetic assays of cholinesterase activity were performed using Ellman’s method and analyzed as previously described. Briefly, in the microplate assay the reaction mixture contained phosphate buffer (0.1 M, pH 8.0), AChE or BChE solution (0.3 or 0.15 U/mL respectively), 5,5′-dithiobis-(2-nitrobenzoic) acid (DTNB; 1.5 mM), and inhibitor dissolved in 1% DMSO at the desired concentrations or DMSO alone (control) in a final volume of 0.2 mL. […] The activity of the enzymes was performed at 25 °C.
(§2) Acetylcholinesterase was from Electrophorus electricus (EeAChE), while butylcholinesterase was from equine serum (eqBChE) or human serum (hBChE).
(§3) IC50 values were calculated by the interpolation of dose-response curves using GraphPad Prism 6 (Graphpad Software, San Diego, California, USA).

The target in data set [3] is T2, EeAChE (Electrophorus electricus, UniProt O42275).
T2 construct: purchased Sigma-Aldrich
T2 sequence (O42275 24-633): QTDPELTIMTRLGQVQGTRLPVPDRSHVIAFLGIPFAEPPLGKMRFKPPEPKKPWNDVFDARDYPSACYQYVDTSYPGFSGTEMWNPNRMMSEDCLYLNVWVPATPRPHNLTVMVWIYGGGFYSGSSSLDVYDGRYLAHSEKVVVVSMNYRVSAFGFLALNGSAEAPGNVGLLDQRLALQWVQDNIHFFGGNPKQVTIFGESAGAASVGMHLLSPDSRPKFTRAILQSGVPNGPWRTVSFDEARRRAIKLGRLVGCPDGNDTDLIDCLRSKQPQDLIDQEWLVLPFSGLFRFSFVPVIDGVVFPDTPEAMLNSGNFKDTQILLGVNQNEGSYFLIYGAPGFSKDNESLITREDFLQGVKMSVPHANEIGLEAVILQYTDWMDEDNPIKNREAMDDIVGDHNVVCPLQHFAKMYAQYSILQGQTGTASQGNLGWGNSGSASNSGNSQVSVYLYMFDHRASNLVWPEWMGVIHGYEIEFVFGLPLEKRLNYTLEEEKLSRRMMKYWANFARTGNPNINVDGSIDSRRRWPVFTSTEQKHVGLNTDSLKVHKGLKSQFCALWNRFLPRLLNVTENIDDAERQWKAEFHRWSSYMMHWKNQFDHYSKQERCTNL
Put plainly: biochemical. It is filed as biochemical. Conditions: for IC50: mean ± SD, n = 3. Here is the method:
as §1, §2, §3

Data set [4] concerns the target T3, hBChE (Homo sapiens, UniProt P06276).
T3 construct: butylcholinesterase was from equine serum (eqBChE) or human serum (hBChE); purchased Sigma-Aldrich; host or cells: human serum
Kind of data set: Cholinesterase assay (Ellman's method), hBChE. Format: biochemical. Conditions: for IC50: mean ± SD, n = 3; for hBChE inhibitory activity, times more active than galantamine: relative to reference compound galantamine, same assay conditions. Here is the method:
as §1, §2, §3
On the technique in general: DTNB colorimetry detects thiols as they appear.

The target of data set [5] is T1, eqBChE. Put plainly: Kinetic study of eqBChE inhibition (Lineweaver-Burk plots). The following applies: for type of inhibition: Lineweaver-Burk plot analysis; for KIS (binding with the enzyme-substrate complex): secondary plot of 1/Vmax versus compound concentration; for KIS (binding with the enzyme-substrate complex) / Ki: substrate BTCI; for Ki: secondary plot of slope (Km/Vmax) versus compound concentration, read-out: KI (binding with the free enzyme). Format: biochemical. How it is done: . Further to evaluate the selective characteristics and type of inhibition, we investigated the kinetic behaviour of eqBChE at different concentration of S-butyrylthiocholine iodide (BTCI) and inhibitors by Lineweaver-Burk plot analysis (Fig. 2).
The enzymes and reagents for biochemical assays were obtained from Sigma-Aldrich. Kinetic assays of cholinesterase activity were performed using Ellman’s method and analyzed as previously described. Briefly, in the microplate assay the reaction mixture contained phosphate buffer (0.1 M, pH 8.0), AChE or BChE solution (0.3 or 0.15 U/mL respectively), 5,5′-dithiobis-(2-nitrobenzoic) acid (DTNB; 1.5 mM), and inhibitor dissolved in 1% DMSO at the desired concentrations or DMSO alone (control) in a final volume of 0.2 mL. Finally, acetylthiocholine iodide (ATCI) or S-butyrylthiocholine iodide (BTCI) (1.5 mM) as the substrate was added to the reaction mixture and the absorbance immediately monitored at 405 nm. The activity of the enzymes was performed at 25 °C.
Kinetic characterization was performed by constructing Lineweaver-Burk plots by plotting 1/V vs 1/[S] in the presence of different concentrations of inhibitor and substrate. Kinetics constants were determined by the replots of the Slopes (KM/Vmax) or 1/Vmax versus the inhibitor concentration.

Data set [6] has as its system NSC-34 cells. Put plainly: MTT cell viability assay. Format: cell-based, Mouse. The following applies: 0–100 μM, 24 h, at the concentration in which eqBChE activity was inhibited. Here is the method:
After obtaining encouraging results from the inhibitory assay experiments, biosafety effectiveness of the two promising compounds (15 and 17) was further evaluated. Cells were treated with different concentration of each compound (0–100 μM) for 24 h and their potential cytotoxic effect on NSC-34 cells was determined by using MTT assay. Viability of the cells treated with the compounds 15 and 17 and comparison to the control cells were performed (Fig. 4).
Mouse motor neuron like cell line (NSC-34) was purchased from the American Type Culture Collection (ATCC, Manassas, Virginia, USA). The cells were cultured in Dulbecco’s Modified Eagle Medium (DMEM) containing 10% fetal bovine serum (FBS; Gibco, NY, USA), and 1% penicillin/streptomycin at 37 °C in a humidified atmosphere with 5% CO2. Cell viability was detected by the colorimetric 3-(4,5-dimethylthiazol-2-yl)-2,5-diphenyltetrazolium bromide (MTT) assay. This is a colorimetric assay for measuring the activity of mitochondrial enzymes in living cells that convert MTT into purple formazan crystals. Briefly, cells were seeded in a 96-well plate (10^4 cells/well) and incubated with samples at concentration ranging from 10 to 100 μM for […]. […] The resulting violet formazan precipitates were dissolved in isopropanol and the absorbance of each well was determined at 590 nm using a microplate reader with a 630 nm reference.
(In general: Tetrazolium dyes change colour on reduction, which living cells bring about.)

For data set [7], the system named is BChE. The following applies: previous study ref 34; cited from earlier work.

T3 sequence (P06276 29-602): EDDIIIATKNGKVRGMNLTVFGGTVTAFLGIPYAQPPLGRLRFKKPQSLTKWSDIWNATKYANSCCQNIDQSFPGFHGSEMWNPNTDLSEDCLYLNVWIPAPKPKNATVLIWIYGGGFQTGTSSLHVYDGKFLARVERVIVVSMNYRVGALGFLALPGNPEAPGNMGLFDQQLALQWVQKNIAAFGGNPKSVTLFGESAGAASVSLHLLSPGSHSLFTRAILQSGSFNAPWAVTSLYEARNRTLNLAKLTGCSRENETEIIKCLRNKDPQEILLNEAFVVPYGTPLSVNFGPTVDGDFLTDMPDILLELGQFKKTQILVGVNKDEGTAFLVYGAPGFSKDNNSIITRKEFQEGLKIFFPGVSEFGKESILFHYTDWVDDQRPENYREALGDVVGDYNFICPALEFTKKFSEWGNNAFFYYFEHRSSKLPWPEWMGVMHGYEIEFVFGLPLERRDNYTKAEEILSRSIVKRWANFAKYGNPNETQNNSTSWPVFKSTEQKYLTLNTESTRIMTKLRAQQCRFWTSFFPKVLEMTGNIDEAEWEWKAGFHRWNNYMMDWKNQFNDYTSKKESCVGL

One may read the EC50 as the concentration giving half of the maximal effect. Read a low EC50 as a more potent agent. As usually defined, the IC50 is the concentration at which inhibition is half-maximal. As to `Cc1ccc2oc(-c3cc(O)cc(O)c3)cc2c1` [Compound 20], a half-maximal response in data set [1] (EC50) required 18.2 ± 0.86 µM. In addition, in data set [2], the “Selectivity to eqBChE” value is listed as >8.0 and half-maximal inhibition (IC50) required 12.5 ± 1.29 µM. Also, in data set [3], the half-inhibitory concentration (IC50) was > 100 µM.

Regarding `Oc1cc(-c2cc3cc(Cl)ccc3o2)cc(O)c1O` [Compound 23], in data set [1], the midpoint of the response, the EC50, lay at 12.5 ± 0.44 µM. In addition, the “Selectivity to eqBChE” value in data set [2] is given as 0.78. Besides, the IC50 in data set [2] turned out to be 38.2 ± 2.4 µM; in data set [3], 30 ± 2.8 µM.

In general, Ki refers to the equilibrium dissociation constant of an inhibitor or competing ligand from its target. `Oc1cc(O)cc(-c2cc3cccc(Cl)c3o2)c1` [Compound 15]: in data set [1], the midpoint of the response, the EC50, lay at 14.9 µM. In data set [4], the half-inhibitory concentration (IC50) stood at 27.5 ± 1.82 µM and the “hBChE inhibitory activity, times more active than galantamine” value turned out to be 2 times. In data set [5], the type of inhibition entry was “mixed-type inhibitor”, the “KIS (binding with the enzyme-substrate complex)” value came out at 8.66 µM and the Ki came out at 13.9 µM. For the same compound, in data set [2], the “Selectivity to eqBChE” value is listed as >16.0 and the IC50 came out at 6.23 ± 0.43 µM. The IC50 in data set [3] was ≥ 100 µM. Moreover, in data set [6], the cytotoxic effect entry is on record as “no considerable cytotoxic effect”.

With `Cc1c(C)c2c(c(C)c1O)CCC(C)(C(=O)O)O2` (stereo not drawn) [Trolox, reference compound], in data set [1], the EC50 stood at 13 ± 1.1 µM.

With `Oc1cc(O)cc(-c2cc3cccc(Br)c3o2)c1` [Compound 17], the EC50 in data set [1] stood at 16.7 ± 1.31 µM. Moreover, in data set [4], the IC50 is 27.5 ± 1.53 µM and the “hBChE inhibitory activity, times more active than galantamine” value stood at 2 times. In data set [5], the type of inhibition result was “non-competitive inhibitor”, the “KIS (binding with the enzyme-substrate complex)” value stood at 4.7 µM and the Ki came to 4.3 µM. In addition, in data set [2], the “Selectivity to eqBChE” value is listed as 28.0 and the IC50 is 3.57 ± 0.25 µM. Also, the “eqBChE inhibitory activity, times more active than galantamine” value in data set [2] (relative to reference compound galantamine) is listed as ~8 times. In data set [3], 100 ± 6.1 µM corresponded to half-maximal inhibition (IC50). In data set [6], the cytotoxic effect entry is on record as “no considerable cytotoxic effect”.

With `Oc1cc(O)cc(-c2cc3cc(Cl)ccc3o2)c1` [Compound 16], the EC50 in data set [1] was 17.6 ± 0.82 µM. Further, in data set [2], the “Selectivity to eqBChE” value is given as 2.2 and 36.6 ± 2.9 µM corresponded to half-maximal inhibition (IC50). In data set [3], this compound came in with an IC50 of 80 ± 7.3 µM.

In the case of `Oc1cc(-c2cc3cccc(Br)c3o2)cc(O)c1O` [Compound 24], the EC50 in data set [1] was found to be 15.4 ± 0.81 µM. For the same compound, in data set [2], the “Selectivity to eqBChE” value worked out at 2.0 and 18.4 ± 0.93 µM corresponded to half-maximal inhibition (IC50). In data set [3], the IC50 came out at 37 ± 2.6 µM.

Regarding `Cc1ccc2oc(-c3cc(O)c(O)c(O)c3)cc2c1` [Compound 27], the EC50 in data set [1] worked out at 8.93 ± 0.57 µM. For the same compound, in data set [2], the “Selectivity to eqBChE” value is listed as >6.2 and the IC50 worked out at 16.1 ± 1.05 µM. In addition, in data set [3], the IC50 was ≥ 100 µM.

In data set [1], `Oc1cc(O)cc(-c2cc3cc(Br)ccc3o2)c1` [Compound 18] registered an EC50 of 17.5 ± 0.93 µM. In addition, in data set [2], the “Selectivity to eqBChE” value is given as 2.2 and the IC50 stood at 30 ± 2.7 µM. Moreover, half-maximal inhibition in data set [3] (IC50) required 66 ± 4.2 µM.

In data set [1], `Oc1cc(O)cc(-c2cc3ccccc3o2)c1` [Compound 21] came in with an EC50 of 23.2 ± 1.54 µM. Besides, in data set [2], the “Selectivity to eqBChE” value was >4.0 and it took 25.2 ± 1.3 µM to reach half-maximal inhibition (IC50). Besides, in data set [3], the IC50 was > 100 µM.

On to `Cc1cccc2cc(-c3cc(O)cc(O)c3)oc12` [Compound 19], for which, in data set [1], the EC50 is 19.3 ± 1.43 µM. Moreover, the “Selectivity to eqBChE” value in data set [2] is given as >10.0. Also, the figures for the IC50 in data set [2] and in data set [3] were 10 ± 0.96 µM and > 100 µM, respectively.

Take `Oc1cc(-c2cc3cc(Br)ccc3o2)cc(O)c1O` [Compound 25]: in data set [1], the EC50 worked out at 9.46 ± 0.68 µM. Besides, in data set [2], the “Selectivity to eqBChE” value amounted to 0.90 and half-maximal inhibition (IC50) required 27.6 ± 1.9 µM. Moreover, in data set [3], the IC50 came out at 25 ± 1.9 µM.

The compound `Oc1cc(-c2cc3ccccc3o2)cc(O)c1O` [Compound 28] gave an EC50 in data set [1] of 52.8 ± 2.43 µM. Besides, in data set [2], the “cholinesterase inhibitory activity (eqBChE)” value is recorded as “did not exert any cholinesterase inhibitory activity” and the half-inhibitory concentration (IC50) was > 100 µM. Moreover, in data set [3], the “cholinesterase inhibitory activity (EeAChE)” value is on record as “did not exert any cholinesterase inhibitory activity” and the IC50 was > 100 µM.

In the case of `COc1ccc2c3c1O[C@H]1C[C@@H](O)C=C[C@@]31CCN(C)C2` [Galantamine], the IC50 in data set [7] is […].

With `Oc1cc(-c2cc3cccc(Cl)c3o2)cc(O)c1O` [Compound 22], the EC50 in data set [1] turned out to be 26.3 ± 1.46 µM. For the same compound, in data set [2], the “Selectivity to eqBChE” value was 1.9. Also, the values for the IC50 in data set [2] and in data set [3] were 25.7 ± 1.6 µM and 50 ± 3.3 µM, respectively.

Turning to `Cc1cccc2cc(-c3cc(O)c(O)c(O)c3)oc12` [Compound 26], the 50% effective concentration (EC50) in data set [1] turned out to be 6.6 ± 0.24 µM. In addition, in data set [2], the “Selectivity to eqBChE” value amounted to 3.3 and inhibition was half-maximal at 19.8 ± 1.2 µM (IC50). The compound further displayed an IC50 in data set [3] of 66 ± 5.4 µM.
